Source: ChEMBL document CHEMBL5137078, “Lysine-Tethered Stable Bicyclic Cationic Antimicrobial Peptide Combats Bacterial Infection in Vivo” (J Med Chem, 2022)
In brackets after ≈: the same amount, converted by molar mass.

What was measured:
Type in all cases: functional
Staphylococcus aureus [1] = assay: Antibacterial activity against Staphylococcus aureus BNCC 186335 measured after 16 hrs by microdilution assay
Staphylococcus aureus [2] = assay: Antibacterial activity against methicillin-resistant Staphylococcus aureus BNCC 186335 measured after 16 hrs by microdilution assay
Listeria monocytogenes = assay: Antibacterial activity against Listeria monocytogenes measured after 16 hrs by microdilution assay
Escherichia coli [3] = assay: Antibacterial activity against Escherichia coli BNCC 133264 measured after 16 hrs by microdilution assay
Pseudomonas aeruginosa [4] = assay: Antibacterial activity against Pseudomonas aeruginosa BNCC 125486 measured after 16 hrs by microdilution assay
Escherichia coli [5] = assay: Antibacterial activity against multidrug-resistant Escherichia coli BNCC 133264 measured after 16 hrs by microdilution assay
Pseudomonas aeruginosa [6] = assay: Antibacterial activity against multidrug-resistant Pseudomonas aeruginosa BNCC 125486 measured after 16 hrs by microdilution assay
Acinetobacter baumannii = assay: Antibacterial activity against multidrug-resistant Acinetobacter baumannii measured after 16 hrs by microdilution assay

Compound | MIC99.9 (Staphylococcus aureus [1]) | MIC99.9 (Staphylococcus aureus [2]) | MIC99.9 (Listeria monocytogenes) | MIC99.9 (Escherichia coli [3]) | MIC99.9 (Pseudomonas aeruginosa [4]) | MIC99.9 (Escherichia coli [5]) | MIC99.9 (Pseudomonas aeruginosa [6]) | MIC99.9 (Acinetobacter baumannii)
CCN1CCN(C(=O)N[C@@H](C(=O)N[C@@H]2C(=O)N3C(C(=O)O)=C(CSc4nnnn4C)CS[C@H]23)c2ccc(O)cc2)C(=O)C1=O [CEFOPERAZONE] | <1 µg/mL | >128 µg/mL | 16 µg/mL (≈ 24.8 µM) | <1 µg/mL | 2 µg/mL (≈ 3.1 µM) | >128 µg/mL | 128 µg/mL (≈ 198 µM) | >128 µg/mL
CN[C@H](CC(C)C)C(=O)N[C@H]1C(=O)N[C@@H](CC(N)=O)C(=O)N[C@H]2C(=O)N[C@H]3C(=O)N[C@H](C(=O)N[C@H](C(=O)O)c4cc(O)cc(O)c4-c4cc3ccc4O)[C@H](O)c3ccc(c(Cl)c3)Oc3cc2cc(c3O[C@@H]2O[C@H](CO)[C@@H](O)[C@H](O)[C@H]2O[C@H]2C[C@](C)(N)[C@H](O)[C@H](C)O2)Oc2ccc(cc2Cl)[C@H]1O [VANCOMYCIN] | 2 µg/mL (≈ 1.38 µM) | 2 µg/mL (≈ 1.38 µM) | 1 µg/mL (≈ 0.69 µM) | >128 µg/mL | >128 µg/mL | >128 µg/mL | >128 µg/mL | >128 µg/mL
